Results on 36 molecules are retold here after ChEMBL document CHEMBL4483862, “Open-source discovery of chemical leads for next-generation chemoprotective antimalarials” (2018).

The subject of this experiment is Plasmodium berghei. The experiment is described as follows: Luciferase/luciferin-expressing antifolate-resistant parasites were used to infect a culture of HepG2 cells that were pre-incubated with compounds. Infected hepatocytes emit light due to the luciferase reaction. Assay results are presented as the percent inhibition of light emission compared to control. […]. It is filed as functional. The conditions noted are these: sporozoite; for IC90: read-out: LUCIFERASE INFECTION ASSAY - IC90.

What is called IC50 is the concentration needed to halve the response being measured. As a reminder, the IC90 is the concentration at which the effect reaches the 90% level. `CC(C)Cc1nc2oc3c(NCC4CCCO4)ncnc3c2c2c1CCC2` (configuration not stated): the IC90 is 4.52 µM. In addition, for the setting “PBLUC_HILL_SLOPE 12.2, PBLUC_R_SQUARED 0.0912, read-out: LUCIFERASE INFECTION ASSAY - IC50”, the IC50 was found to be 3.77 µM.
On to `Cc1ccc(/C=C/c2ccc3ccccc3[n+]2C)cc1`, for which the IC90 was above 8.52 µM. Besides, the IC50 (PBLUC_HILL_SLOPE 12.2, PBLUC_R_SQUARED 0.0729, read-out: LUCIFERASE INFECTION ASSAY - IC50) came to 8.36 µM.
Turning to `CN(C)CCNC(=O)c1ccc(-c2cc(-c3cc(F)c(F)c(F)c3)cnc2N)cc1`, the IC90 was above 7.96 µM. For the same molecule, the IC50 (PBLUC_HILL_SLOPE 12.1, PBLUC_R_SQUARED 0.329, read-out: LUCIFERASE INFECTION ASSAY - IC50) amounted to 7.43 µM.
With `CC(C)(C)c1ccc(-c2n[nH]c(NC(=O)c3ccccc3Cl)c2Br)cc1`, the IC90 is above 7.63 µM. In addition, the IC50 (PBLUC_HILL_SLOPE 11.9, PBLUC_R_SQUARED 0.175, read-out: LUCIFERASE INFECTION ASSAY - IC50) turned out to be 7.07 µM.
Turning to `CC(C)(C)NCC(O)CON=C1c2ccccc2-c2ccccc21` (configuration not stated), the IC90 is above 10 µM. Moreover, the IC50 (PBLUC_HILL_SLOPE 12, PBLUC_R_SQUARED 0.408, read-out: LUCIFERASE INFECTION ASSAY - IC50) was 9.17 µM.
Turning to `Cc1nc(N2CCN(C(=O)C(C)C)CC2)c2c3c(sc2n1)CC(C)CC3` (configuration not stated), the IC90 was above 10 µM. Moreover, the IC50 (PBLUC_HILL_SLOPE 12.1, PBLUC_R_SQUARED 0.479, read-out: LUCIFERASE INFECTION ASSAY - IC50) was determined as 9.05 µM.
With `CCc1ccccc1NC(=O)C(C)SCc1ccccc1` (configuration not stated), the IC90 was above 11 µM. Moreover, under “PBLUC_HILL_SLOPE 11.9, PBLUC_R_SQUARED 0.654, read-out: LUCIFERASE INFECTION ASSAY - IC50”, the IC50 was 9.84 µM.
For the molecule `CN(C)CCNC(=O)c1ccc(-c2cn3c(-c4ccc5c(c4)OCO5)cnc3cn2)cc1`, the IC90 was above 7.68 µM. Also, under “PBLUC_HILL_SLOPE 12, PBLUC_R_SQUARED 0.209, read-out: LUCIFERASE INFECTION ASSAY - IC50”, the IC50 was above 7.68 µM.
On to `O=C(Nc1nc2ccccc2[nH]1)C1CCN(c2ncc(C(F)(F)F)cc2Cl)CC1`, for which the IC90 turned out to be 3.95 µM. Also, the IC50 (PBLUC_HILL_SLOPE 12.1, PBLUC_R_SQUARED 0.351, read-out: LUCIFERASE INFECTION ASSAY - IC50) was determined as 3.29 µM.
`CNc1snc(C)c1C(=O)N(C)Cc1ccccc1OC(F)(F)F`: the IC90 came out at 0.463 µM. The IC50 (PBLUC_HILL_SLOPE 12.1, PBLUC_R_SQUARED 0.631, read-out: LUCIFERASE INFECTION ASSAY - IC50) amounted to 0.386 µM.
As for `O=C(Nc1ccc(Cl)cc1)Nc1cc(-c2cc(-c3ccccc3)c(C(F)(F)F)s2)n[nH]1`, the IC90 is above 7.13 µM. Also, the IC50 (PBLUC_HILL_SLOPE 12.1, PBLUC_R_SQUARED 0.235, read-out: LUCIFERASE INFECTION ASSAY - IC50) was determined as 6.86 µM.
For the molecule `Cn1nc(C(C)(C)C)cc1C(=O)Nc1ccc2nc(-c3cccnc3)nn2c1`, the IC90 is above 10 µM. The IC50 (PBLUC_HILL_SLOPE 11.9, PBLUC_R_SQUARED 0.235, read-out: LUCIFERASE INFECTION ASSAY - IC50) was above 10 µM.
On to `COc1ccccc1C(=O)NCc1cn(Cc2ccccc2)nc1-c1ccccc1`, for which the IC90 is above 10 µM. Besides, the IC50 (PBLUC_HILL_SLOPE 11.8, PBLUC_R_SQUARED 0.553, read-out: LUCIFERASE INFECTION ASSAY - IC50) was found to be 9.21 µM.
With `O=C(COC(=O)C1(c2ccccc2F)CCCC1)NC1CCCCCCC1`, the IC90 was above 10 µM. The IC50 (PBLUC_HILL_SLOPE 12.1, PBLUC_R_SQUARED 0.29, read-out: LUCIFERASE INFECTION ASSAY - IC50) was above 10 µM.
As for `N#Cc1nncn1Cc1csc(-c2cccs2)n1`, the IC90 came out at 9.56 µM. Also, the IC50 (PBLUC_HILL_SLOPE 12.1, PBLUC_R_SQUARED 0.315, read-out: LUCIFERASE INFECTION ASSAY - IC50) turned out to be 7.97 µM.
As for `CCOC(=O)c1cc(OC)c2cccc(CN3CCCCCC3(C)C(=O)NCC(C)C)c2c1` (configuration not stated), the IC90 is above 7.26 µM. Moreover, the IC50 (PBLUC_HILL_SLOPE 12.1, PBLUC_R_SQUARED 0.495, read-out: LUCIFERASE INFECTION ASSAY - IC50) was found to be 6.85 µM.
In the case of `O=C(/C(=N/Nc1ccc(OC(F)(F)F)cc1)C(=O)C(F)(F)F)c1cccs1`, the IC90 was above 8.04 µM. Moreover, the IC50 (PBLUC_HILL_SLOPE 12.2, PBLUC_R_SQUARED 0.21, read-out: LUCIFERASE INFECTION ASSAY - IC50) turned out to be 7.58 µM.
As for `CC(C)c1ccc(-c2cnc3sc(NC4CCC(O)CC4)nn23)cc1` (configuration not stated), the IC90 was above 9.26 µM. The IC50 (PBLUC_HILL_SLOPE 11.9, PBLUC_R_SQUARED 0.449, read-out: LUCIFERASE INFECTION ASSAY - IC50) amounted to 8.25 µM.
Take `CC(C)n1ncc2cc(NC(=O)C3=Cc4ccccc4OC3)cnc21`: the IC90 is above 10 µM. Moreover, the IC50 (PBLUC_HILL_SLOPE 12, PBLUC_R_SQUARED 0.534, read-out: LUCIFERASE INFECTION ASSAY - IC50) stood at 9.28 µM.
For the molecule `O=C(NC(=O)c1ccc(F)c(Cl)c1)Nc1nnc(C(F)(F)F)s1`, the IC90 is above 8.95 µM. Moreover, the IC50 (PBLUC_HILL_SLOPE 12, PBLUC_R_SQUARED 0.227, read-out: LUCIFERASE INFECTION ASSAY - IC50) stood at 8.64 µM.
Consider `O=C(Nc1cccc(F)c1)Nc1ccc2nc(-c3ccoc3)nn2c1`, for which the IC90 is above 10 µM. Moreover, the IC50 (PBLUC_HILL_SLOPE 11.8, PBLUC_R_SQUARED 0.647, read-out: LUCIFERASE INFECTION ASSAY - IC50) came out at 8.63 µM.
On to `CN(C)CCCNc1nc(-c2cccs2)nc2sc3c(c12)CCCC3`, for which the IC90 amounted to 4.04 µM. In addition, where the note is “PBLUC_HILL_SLOPE 12.2, PBLUC_R_SQUARED 0.29, read-out: LUCIFERASE INFECTION ASSAY - IC50”, the IC50 stood at 3.37 µM.
Regarding `Cc1c(C(=O)c2ccccc2)oc2ccc(NC(=O)c3ccco3)cc12`, the IC90 was above 9.56 µM. Besides, the IC50 (PBLUC_HILL_SLOPE 11.9, PBLUC_R_SQUARED 0.0568, read-out: LUCIFERASE INFECTION ASSAY - IC50) was above 9.56 µM.
As for `CCOC(=O)c1oc2ccccc2c1COC(=O)c1ccc(C)c(NC(=O)c2ccco2)c1`, the IC90 came to 7.27 µM. The IC50 (PBLUC_HILL_SLOPE 12.1, 4.42, PBLUC_R_SQUARED 0.718, 0.471, read-out: LUCIFERASE INFECTION ASSAY - IC50) worked out at 6.8 µM.
Consider `CC(=O)Nc1ccc(-c2cnc3ccc(Cc4ccc(F)cc4)nn23)cc1`, for which the IC90 is 1.41 µM. Besides, for the setting “PBLUC_HILL_SLOPE 11.9, PBLUC_R_SQUARED 0.515, read-out: LUCIFERASE INFECTION ASSAY - IC50”, the IC50 worked out at 1.17 µM.
For the molecule `Cc1nn(-c2ccccc2)c2nc(-c3cccs3)cc(C(=O)Nc3cc(Cl)ccc3N3CCN(C)CC3)c12`, the IC90 was 9.44 µM. For the same molecule, the IC50 (PBLUC_HILL_SLOPE 12, PBLUC_R_SQUARED 0.52, read-out: LUCIFERASE INFECTION ASSAY - IC50) stood at 7.85 µM.
With `CCN1CCN(c2ccc(Cl)cc2NC(=O)c2sc(-c3ccccc3)nc2C)CC1`, the IC90 came out at 4.23 µM. Also, the IC50 (PBLUC_HILL_SLOPE 12.2, PBLUC_R_SQUARED 0.286, read-out: LUCIFERASE INFECTION ASSAY - IC50) is 3.53 µM.
For `Cc1c(Cl)cc(NC(=O)Nc2ccccc2)c(O)c1Cl`, the 90% effect concentration (IC90) was above 10.6 µM. Also, the IC50 (PBLUC_HILL_SLOPE 11.8, PBLUC_R_SQUARED 0.519, read-out: LUCIFERASE INFECTION ASSAY - IC50) is 9.83 µM.
As to `Cc1ccc(NC(=O)c2cnn(-c3cccc(Cl)c3)c2C(C)C)nc1`, the IC90 came out at 4.3 µM. Besides, where the note is “PBLUC_HILL_SLOPE 12, PBLUC_R_SQUARED 0.586, read-out: LUCIFERASE INFECTION ASSAY - IC50”, the IC50 is 3.58 µM.
On to `CC(NC(=O)Nc1ccc(C#N)cc1)c1ccc2ccccc2c1` (configuration not stated), for which the IC90 was above 10 µM. In addition, under “PBLUC_HILL_SLOPE 12.1, PBLUC_R_SQUARED 0.463, read-out: LUCIFERASE INFECTION ASSAY - IC50”, the IC50 came out at 9.4 µM.
Turning to `O=C(Nc1nccs1)C1CCCNC1` (configuration not stated), the IC90 is above 10 µM. Besides, for the setting “PBLUC_HILL_SLOPE 12.1, PBLUC_R_SQUARED 0.548, read-out: LUCIFERASE INFECTION ASSAY - IC50”, the IC50 was 8.7 µM.
With `CC(Sc1nc2ccsc2c(=O)n1C)c1ccc(F)cc1` (configuration not stated), the IC90 is above 10 µM. In addition, the IC50 (PBLUC_HILL_SLOPE 11.9, PBLUC_R_SQUARED 0.0437, read-out: LUCIFERASE INFECTION ASSAY - IC50) was above 10 µM.
Take `O=C(NC1CC1)c1ccc(-c2cnc3cnc(-c4cnn(Cc5ccccc5)c4)cn23)cc1`: the IC90 was above 7.59 µM. Also, the IC50 (PBLUC_HILL_SLOPE 12.1, PBLUC_R_SQUARED 0.417, read-out: LUCIFERASE INFECTION ASSAY - IC50) turned out to be 6.99 µM.
`Cc1[nH]c2ccccc2c1CC(=O)N1CCc2c(c(C(=O)NCc3cccnc3)nn2CC(C)C)C1`: the IC90 was determined as 6.57 µM. Where the note is “PBLUC_HILL_SLOPE 12.1, PBLUC_R_SQUARED 0.505, read-out: LUCIFERASE INFECTION ASSAY - IC50”, the IC50 is 5.48 µM.
Take `Cc1ccc(NC(=O)C2(C)CCN2Cc2ccccc2Cl)cc1O` (configuration not stated): the IC90 is above 9.57 µM. Also, the IC50 (PBLUC_HILL_SLOPE 11.9, PBLUC_R_SQUARED 0.388, read-out: LUCIFERASE INFECTION ASSAY - IC50) is 8.78 µM.
`COc1cc(-c2cc(-c3ccc(F)c(Cl)c3)cnc2N)ccc1O`: the concentration for an effect of 90% (IC90) is above 9.57 µM. Moreover, the IC50 (PBLUC_HILL_SLOPE 11.9, PBLUC_R_SQUARED 0.433, read-out: LUCIFERASE INFECTION ASSAY - IC50) worked out at 8.61 µM.
